Drawing on ChEMBL document CHEMBL1201862, “PubChem BioAssay data set” (2004), this text covers IC50, EC50 and AC50 for seven compounds.

The target in test [1] is Tyrosyl-DNA phosphodiesterase 2 (Homo sapiens, UniProt O95551). As to the kind of experiment: potency against TDP2 phosphodiesterase activity – biochemical, epi absorbance, IC50, dose response (AID 743297).
For test [2], the target named is T1, Heat shock factor protein 1 (Mus musculus, UniProt P38532).
T1 sequence (P38532 whole entry): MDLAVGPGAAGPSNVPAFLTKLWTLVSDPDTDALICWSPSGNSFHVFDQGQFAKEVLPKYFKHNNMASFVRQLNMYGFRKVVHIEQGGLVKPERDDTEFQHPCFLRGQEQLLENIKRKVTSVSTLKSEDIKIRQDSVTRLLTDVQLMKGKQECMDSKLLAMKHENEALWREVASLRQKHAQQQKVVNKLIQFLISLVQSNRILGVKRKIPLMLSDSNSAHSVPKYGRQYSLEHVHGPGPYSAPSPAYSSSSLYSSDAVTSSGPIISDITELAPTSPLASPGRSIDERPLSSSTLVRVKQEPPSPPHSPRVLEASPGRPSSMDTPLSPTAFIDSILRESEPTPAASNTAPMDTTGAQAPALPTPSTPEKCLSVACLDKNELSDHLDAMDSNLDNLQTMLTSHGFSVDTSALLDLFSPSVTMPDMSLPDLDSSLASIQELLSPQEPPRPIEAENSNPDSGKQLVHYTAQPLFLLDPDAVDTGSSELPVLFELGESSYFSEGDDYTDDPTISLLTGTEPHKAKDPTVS
Description: decrease of HSF1-responsive luciferase luminescence – cell-based, NIH3T3, dose retest, confirmation (AID 2382).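 Also: NIH3T3 fibroblasts with HSF1-driven luciferase reporter stressed by proteasome inhibitor MG132; luminescence from HSF1-driven luciferase expression after 8 hours of MG132 stress.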 In kind it is functional.

Test [3] is described as follows: alpha-synuclein stem-loop luciferase translation blockers – H4 neuroglioma cells, luminescence, confirmation (AID 1988). In kind it is functional, cell-based.
Test [4] addresses Paired box protein Pax-8 (Homo sapiens, UniProt Q06710). As to the kind of experiment: PAX8 transcriptional activity inhibition in RMG-I – RMG-I cells, luciferase, cherry-pick, dose response (AID 687027).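 Also: luciferase reporter driven by Pax8 target thyroperoxidase promoter measured by SteadyGlo luminescence.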 The test is classed as functional, cell-based.
Test [5] is described as follows: viability loss of HPDE-C7K cells – cell-based, fluorescence, HTS, primary screen (AID 431). In kind it is functional. Conditions: Homo sapiens.
Test [6] can be described thus: viability of PTEN-deleted HCT116 cells – cell-based, HCT116 PTEN knockout, dose response (AID 1047).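 Also: HCT116 colon tumor cells with PTEN knocked out; cells exposed to compound for 60 hours before readout; potency for loss of cell viability measured by luminescence.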 In kind it is functional.
Test [7] deals with BJ. As to the kind of experiment: BJ-TERT fibroblast viability loss – cell-based, RAS-independent, luminescence, dose response (AID 1933). In kind it is functional. Conditions: Homo sapiens.
A short description of test [8]: viability of HCT116 lacking mutant beta-catenin – cell-based, human colon tumor, dose response (AID 1045).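 Also: HCT116 colon tumor cells with beta catenin knocked out; cells exposed to compound for 60 hours.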 In kind it is functional.
Test [9] can be described thus: HIV-1 AD8 envelope cell-cell fusion blockers – cherry-pick, dose response (AID 652062).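 Also: luciferase signal from cell-cell fusion driven by HIV-1 clade B AD8 Env; potency is for inhibitors of fusion seen as a drop in luminescence.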 In kind it is functional, cell-based.
Test [10] in a line: DRD fibroblast viability loss – cell-based, non-viral oncogenic, luminescence, dose response (AID 1934). The test is classed as functional. Conditions: Homo sapiens.
The subject of test [11] is HEK293. As to the kind of experiment: EBV LMP1 TES2 canonical NF-kB signalling blockers – cell-based, HEK293, luciferase, cherry-pick, dose response (AID 588343). The conditions noted are these: Homo sapiens. In kind it is functional.
The nature of test [12]: general cell-killing toxicity readout – plate reader, dry powder samples, cytotoxicity control for PAX8 inhibitor project, dose response (AID 743021). In kind it is functional, cell-based.
Test [13] deals with BJ. As to the kind of experiment: cells. Conditions: Homo sapiens. In kind it is functional, cell-based.
Test [14] can be described thus: viability loss in CEM21 cells – cell-based, CellTiter-Glo luminescence, cherry-picked, cytotoxicity control for viral fusion inhibitor project, dose response (AID 652042).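 Also: potency for signal decrease meaning cytotoxicity.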 The test is classed as functional. (ATP-based viability assays read luminescence as a measure of living cells.)
The target in test [15] is Voltage-dependent T-type calcium channel subunit alpha-1H (Homo sapiens, UniProt O95180). In kind it is functional.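 Also: channel activity triggered by adding a high calcium stimulation buffer.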
Voltage-dependent T-type calcium channel subunit alpha-1H, sequence (O95180 whole entry, the tested form may be a part): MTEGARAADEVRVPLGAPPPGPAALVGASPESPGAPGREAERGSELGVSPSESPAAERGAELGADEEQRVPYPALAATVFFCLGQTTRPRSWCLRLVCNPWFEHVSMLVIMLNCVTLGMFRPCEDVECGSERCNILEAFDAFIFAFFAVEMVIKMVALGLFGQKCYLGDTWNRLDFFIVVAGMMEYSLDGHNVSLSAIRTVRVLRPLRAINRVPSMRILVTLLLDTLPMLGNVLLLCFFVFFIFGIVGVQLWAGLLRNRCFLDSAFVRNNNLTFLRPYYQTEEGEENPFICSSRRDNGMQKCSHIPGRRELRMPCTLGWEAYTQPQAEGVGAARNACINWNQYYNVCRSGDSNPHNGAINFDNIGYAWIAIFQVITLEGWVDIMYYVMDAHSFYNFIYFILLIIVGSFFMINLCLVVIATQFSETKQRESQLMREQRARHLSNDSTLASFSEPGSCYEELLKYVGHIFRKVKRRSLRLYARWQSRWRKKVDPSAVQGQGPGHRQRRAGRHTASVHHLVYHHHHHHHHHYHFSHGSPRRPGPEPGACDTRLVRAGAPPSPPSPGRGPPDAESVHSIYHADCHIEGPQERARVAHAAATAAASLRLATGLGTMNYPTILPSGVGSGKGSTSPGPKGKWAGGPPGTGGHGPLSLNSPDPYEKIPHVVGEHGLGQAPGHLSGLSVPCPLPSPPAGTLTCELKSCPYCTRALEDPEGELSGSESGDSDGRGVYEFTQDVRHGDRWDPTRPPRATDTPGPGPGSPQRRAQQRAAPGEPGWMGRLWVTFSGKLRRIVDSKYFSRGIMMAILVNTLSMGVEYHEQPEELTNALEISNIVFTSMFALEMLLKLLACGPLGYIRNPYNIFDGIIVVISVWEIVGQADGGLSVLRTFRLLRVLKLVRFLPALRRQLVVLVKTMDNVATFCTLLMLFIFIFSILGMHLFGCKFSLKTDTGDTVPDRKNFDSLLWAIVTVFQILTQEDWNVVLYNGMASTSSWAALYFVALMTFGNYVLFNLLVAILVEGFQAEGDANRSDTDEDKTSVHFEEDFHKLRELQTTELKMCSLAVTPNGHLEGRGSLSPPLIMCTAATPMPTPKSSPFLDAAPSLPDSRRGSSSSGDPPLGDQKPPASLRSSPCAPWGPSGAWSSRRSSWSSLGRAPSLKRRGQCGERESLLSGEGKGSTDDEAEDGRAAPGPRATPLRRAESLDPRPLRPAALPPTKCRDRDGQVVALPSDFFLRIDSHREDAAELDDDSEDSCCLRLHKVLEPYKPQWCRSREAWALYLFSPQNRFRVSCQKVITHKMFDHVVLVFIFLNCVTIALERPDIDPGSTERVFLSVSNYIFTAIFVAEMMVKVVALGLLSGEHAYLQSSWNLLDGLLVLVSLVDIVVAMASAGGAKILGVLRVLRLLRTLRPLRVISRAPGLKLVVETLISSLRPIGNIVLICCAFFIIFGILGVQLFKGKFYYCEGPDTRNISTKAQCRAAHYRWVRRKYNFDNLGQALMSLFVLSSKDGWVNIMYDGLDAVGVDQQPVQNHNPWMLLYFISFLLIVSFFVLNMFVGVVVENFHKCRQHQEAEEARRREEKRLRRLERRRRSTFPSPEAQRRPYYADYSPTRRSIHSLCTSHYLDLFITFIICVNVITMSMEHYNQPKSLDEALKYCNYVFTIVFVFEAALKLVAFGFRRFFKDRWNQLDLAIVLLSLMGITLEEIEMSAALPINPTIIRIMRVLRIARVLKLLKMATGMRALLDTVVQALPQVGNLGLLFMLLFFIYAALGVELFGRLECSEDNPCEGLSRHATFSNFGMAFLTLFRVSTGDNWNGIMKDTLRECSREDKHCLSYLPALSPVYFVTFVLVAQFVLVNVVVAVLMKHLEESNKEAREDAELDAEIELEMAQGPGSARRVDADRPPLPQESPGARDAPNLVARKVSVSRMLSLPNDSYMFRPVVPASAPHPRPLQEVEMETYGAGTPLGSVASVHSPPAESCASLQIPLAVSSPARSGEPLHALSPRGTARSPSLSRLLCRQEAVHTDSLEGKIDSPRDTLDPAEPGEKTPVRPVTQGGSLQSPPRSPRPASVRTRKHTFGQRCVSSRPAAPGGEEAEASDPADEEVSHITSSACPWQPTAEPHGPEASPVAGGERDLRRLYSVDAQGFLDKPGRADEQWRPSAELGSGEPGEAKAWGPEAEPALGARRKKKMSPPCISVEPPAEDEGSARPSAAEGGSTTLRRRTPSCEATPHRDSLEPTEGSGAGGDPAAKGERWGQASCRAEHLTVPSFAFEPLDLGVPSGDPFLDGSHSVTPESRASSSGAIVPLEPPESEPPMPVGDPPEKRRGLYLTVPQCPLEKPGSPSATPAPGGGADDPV
Test [16] is described as follows: blockers of HIV-1 ZM109 envelope-driven cell-cell fusion – HeLa effector, CEM target cells, luciferase, cherry-pick, dose response (AID 652058).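 Also: luciferase signal from HIV-1 Env mediated cell-cell fusion of effector and target cells.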 In kind it is functional, cell-based.
Test [17] can be described thus: Luminescence Cell-Based Dose Response HTS to Identify Inhibitors of 5'UTR Stem-Loop Driven Prion Protein mRNA Translation in H4 Neuroglioblastoma Cells. [Related pubchem assays: 1827 (Project Summary), 1813 (Primary HTS)]. The test is classed as functional.
Test [18] is described as follows: off-target signal loss in HeLa-CEM21 co-culture – HeLa F-luc CTL cells, cherry-picked, counter-screen for HIV-1 Env fusion inhibitor project, dose response (AID 652040).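 Also: potency for signal decrease marking cytotoxic or nonspecific inhibition.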 In kind it is functional, cell-based. A general note: The purpose of a counterscreen is to sort out artefacts and off-target activity.
Test [19] can be described thus: blockers of HIV-1 envelope-mediated cell-cell fusion – cherry-pick, dose response (AID 652057). The test is classed as functional, cell-based.
Test [20] in a line: luciferase reporter signal suppression in cells – H4 neuroglioma cells, luminescence, dose response (AID 1990). In kind it is functional, cell-based. Background: Reporter assays use an easily measured gene product as a stand-in for the process of interest.
The test system of test [21] is BJ. As to the kind of experiment: growth inhibition of engineered Ras-driven BJ cells – cell-based, alamar blue fluorescence, cherrypicked samples, dose response (AID 2631).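 Also: confirmatory dose-response assay in RAS-dependent BJ fibroblasts engineered with TERT, LT and ST, with cytotoxicity read by fluorescence.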 The test is classed as functional. The conditions noted are these: Homo sapiens.
Test [22] relates to BJ. Description: BJ-TERT-LT-ST fibroblast viability loss – cell-based, RAS-independent, luminescence, dose response (AID 1935).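 Also: BJ fibroblasts immortalized with TERT plus LT and ST oncogenes.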 The test is classed as functional. Conditions: Homo sapiens.
A short description of test [23]: HPDE-C7 pancreatic duct cell viability loss – fluorescence, HTS (AID 430). In kind it is functional, cell-based. Conditions: Homo sapiens.
A short description of test [24]: general mammalian cell viability loss – inhibitor set, cherry-pick, set 2, cytotoxicity control for miR-122 modulator project, dose response (AID 720697). In kind it is functional, cell-based.
Test [25] is described as follows: HGIII-sPLA2 enzyme inhibition potency – biochemical, QFRET, IC50, dose response (AID 743457).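 Also: green fluorescence rise as the enzyme cleaves BODIPY PC-A2 in liposomes.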
A short description of test [26]: A549 cell cytotoxicity, dose response, cytotoxicity control, plate reader, cherry-pick, antagonist series (AID 743412). The test is classed as functional, cell-based.
Test [27] in a line: blockade of melanocortin 4 receptor signaling – cell-based, plate reader, cherry pick, counter-screen for LGR2 antagonist project, dose response (AID 743444).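 Also: transfected HEK 293 cells stimulated with alpha-MSH peptide; potency of inhibitors of the alpha-MSH evoked signal.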 In kind it is functional.
Test [28] in a line: blockers of bursicon-stimulated LGR2 cAMP reporter – cell-based, HEK293, CRE-luciferase reporter, cherry pick, set 2, dose response (AID 743343).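 Also: transfected cells were stimulated with diluted bursicon conditioned medium after compound addition.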 The test is classed as functional.
Test [29] is described as follows: viability loss in HEK293 cells – cell-based, plate reader, cherry-picked samples, cytotoxicity control, dose response (AID 743446). In kind it is functional.
A short description of test [30]: toxicity toward HepG2 liver cells – cell-based, plate reader, cherry-pick, antagonist series, cytotoxicity control, dose response (AID 743416). The test is classed as functional.

Calls of active or inactive are those of the source.

Tyrosyl-DNA phosphodiesterase 2, sequence (O95551 whole entry): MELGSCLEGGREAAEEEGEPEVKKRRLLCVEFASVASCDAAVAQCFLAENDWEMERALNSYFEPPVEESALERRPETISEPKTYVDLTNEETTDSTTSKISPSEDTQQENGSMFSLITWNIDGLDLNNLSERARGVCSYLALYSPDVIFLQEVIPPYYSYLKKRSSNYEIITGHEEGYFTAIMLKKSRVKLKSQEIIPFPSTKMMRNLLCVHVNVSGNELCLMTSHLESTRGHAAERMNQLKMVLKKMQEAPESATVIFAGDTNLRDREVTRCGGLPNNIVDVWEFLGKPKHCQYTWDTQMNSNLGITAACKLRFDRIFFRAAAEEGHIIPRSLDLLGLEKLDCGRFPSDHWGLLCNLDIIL
Paired box protein Pax-8, sequence (Q06710 whole entry): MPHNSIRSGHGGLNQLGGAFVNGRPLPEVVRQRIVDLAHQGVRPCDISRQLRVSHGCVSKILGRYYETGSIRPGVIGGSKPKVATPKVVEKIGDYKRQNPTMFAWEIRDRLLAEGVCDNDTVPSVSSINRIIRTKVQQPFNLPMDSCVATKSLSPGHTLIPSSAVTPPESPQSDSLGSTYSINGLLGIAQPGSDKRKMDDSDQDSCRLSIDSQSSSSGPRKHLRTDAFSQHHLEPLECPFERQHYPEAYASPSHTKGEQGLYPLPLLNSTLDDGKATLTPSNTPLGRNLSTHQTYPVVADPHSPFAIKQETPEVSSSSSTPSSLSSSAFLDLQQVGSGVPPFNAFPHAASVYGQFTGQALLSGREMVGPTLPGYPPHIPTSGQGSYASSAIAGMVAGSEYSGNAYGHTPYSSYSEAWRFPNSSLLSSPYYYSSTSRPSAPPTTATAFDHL

As to `CCCCn1c(NS(=O)(=O)c2ccc(C)cc2)c(C(=O)OCC)c2nc3ccccc3nc21`, in test [1], the IC50 (as a rule, the concentration that gives 50% inhibition) is > 128000 nM (inactive).
Take `O=S(=O)(c1ccc2c(c1)C(=NO)c1cc(S(=O)(=O)N3CCCCC3)ccc1-2)N1CCCCC1`: the EC50 (in general, the midpoint of the concentration-response curve) was 749 nM (active) in test [2]; 3800 nM (active) in [3]; 390 nM (active) in test [5]; 412 nM (active) in [6]; 1020 nM (inconclusive) in [7]; 352 nM (active) in test [8]. Besides, the EC50 in test [10] is 2680 nM (inconclusive); in test [13] it was 2710 nM (inconclusive); in test [15], 12300 nM (active); in test [17], 7790 nM (active); in [20], 6010 nM (active); in test [21], 2970 nM (active). Further, the EC50 in test [22] was 2650 nM (inconclusive); in test [23], 300 nM (active). The AC50 (in general, the concentration at which the activity in the assay is half-maximal) in test [4] was 871 nM (active); in [9], 879 nM (active); in [11], 2990 nM (active); in test [12], 1500 nM (active); in test [14] it was 287 nM (active); in [16], 794 nM (active). The concentration at half-maximal activity (AC50) in test [18] is 767 nM (active); in test [19], 730 nM (active).
Turning to `Cc1ccc(C2CC(C(F)(F)F)n3nc(C(=O)NCc4ccco4)cc3N2)cc1` (stereo unspecified), in test [24], the AC50 was 1940 nM (active).
Take `O=C(NNC(=S)Nc1ccc(Cl)cc1)c1ccccc1`: in [25], the IC50 is > 122000 nM (inactive).
Turning to `CCCCOc1ccc(-c2cnc3ccccc3n2)cc1`, the AC50 is > 52000 nM (inactive) in [26]; 6650 nM (active) in test [27]; 4560 nM (active) in test [28]; > 52000 nM (inactive) in test [29]; > 52000 nM (inactive) in test [30].
Consider `COc1ccc(CNC(=O)NCCc2c[nH]c3ccccc23)cc1`, for which the AC50 in [24] is 1870 nM (active).
On to `COc1cccc(Nc2nc(C(N)Cc3ccc(F)cc3)cs2)n1` (stereo unspecified), for which the AC50 in test [26] was 14500 nM (active); in test [27] it was 31100 nM (active); in test [28] it was 28500 nM (active); in test [29] it was 16800 nM (active); in [30], 13900 nM (active).
